According to US20250346563A1, “HISTONE DEACETYLASE 6 INHIBITORS AND METHOD FOR TREATING NEUROPATHIC PAIN” (Taipei Medical University, priority 2019, published 2025):

Columns and labels:
[1] = system: rat Taxol-induced neuropathic pain model; test: Thermal hyperalgesia in rat Taxol-induced neuropathic pain model; conditions: for thermal hyperalgesia (heat pain threshold) vs vehicle: p<0.05
Experimental: Gabapentin (100 mg/kg), was administrated via IP injection on Days 14, 21, and 27 (total three doses) by using the same cohort of animals in vehicle control group. Thermal hyperalgesia was assessed prior to Taxol challenge (Day 0; Pre-Taxol) and compound administration (Day 13; Pre-dose) and at 1.5 hours after (second) compound administration on Days 14, 17, 21, 24, and 27 (Post-dose). All values represented mean±SEM in individual groups. One-way ANOVA followed by Dunnett's test was applied for comparison between vehicle control and test article groups. p<0.05 is considered significant.
Animal. Male Sprague-Dawley (SD) rats weighing 220-260 g (at arrival) were provided by BioLasco Taiwan (under Charles River Laboratories Technology Licensee).
Chemotherapy induced neuropathy. Male SD rats weighing 240±20 grams was employed. Taxol (2 mg/kg) was injected IP on Days 1, 3, 5 and 7 with a total cumulative dose of 8 mg/kg (qod×4). During the course of the study, the animals were housed socially under constant temperature, humidity and a 12-hour light-dark cycle.
The reference compound, gabapentin (100 mg/kg, IP), was administrated on Days 14, 21, and 27 (total three doses) by using the same cohort of animals in vehicle control group.
The animals were tested prior to study inclusion for thermal hyperalgesia on Day 13. Thermal hyperalgesia was measured at 1.5 hour after dosing of vehicle or test article on Days 14, 17, 21, 24 and 27 by using the IITC Plantar Test Apparatus (IITC Model-336G; IITC Inc., USA). […] A light beam under the floor was aimed at the plantar surface of the left hind paw. The time was measured automatically when the paw is withdrawn away from the thermal stimulus. A cut-off latency of 23 sec was imposed. The latency to withdrawal was obtained for each rat and defined as the heat pain threshold.
All values represented mean±SEM in individual groups. One-way ANOVA followed by Dunnett's test was applied for comparison between vehicle control and test article groups. p<0.05 is considered significant.

scopolamine-treated rats [2] = test: Elevated plus maze test, scopolamine-treated rats; format: in vivo; conditions: by gavage twice daily for seven days; scopolamine 1.5 mg/kg ip
Experimental: (§1) Compound 12, Compound 28, suberanilohydroxamic acid (50 mg/kg) or vehicle was given to rats by gavage twice daily for seven days prior to behavioral experiments. On the day conducting a behavior assessment, rats in all groups except the control group were administered scopolamine (1.5 mg/kg) by intraperitoneal injection for 30 minutes before the assessment, then a water maze test or an elevated plus maze test was performed.

scopolamine-treated rats [3] = test: Water maze test, scopolamine-treated rats; format: in vivo; conditions: by gavage twice daily for seven days; scopolamine 1.5 mg/kg ip
Experimental: as §1

IL-6 expression = test: LPS-induced IL-6 expression in RAW 264.7 cells (ELISA); format: cell-based, mouse; conditions: 10 μM, LPS 24 hr
Experimental: FIG. 1. Effects of Compound 28 on LPS-induced IL-6 protein expression. The cells were induced with 1 µg/mL LPS and various concentrations of Compound 28 for 24 hr. The levels of IL-6 were determined by ELISA kit.
In this example, we tested that whether Compound 28 can attenuate LPS-induced inflammation.
Cells. The RAW 264.7 cell line derived from mouse macrophage were maintained in Dulbecco's modified Eagle's medium (DMEM; GIBCO, Carlsbad, CA, USA) supplemented with 10% heat-inactivated fetal bovine serum (FBS), 100 μg/mL streptomycin, and 100 IU/mL penicillin.
Measurement of IL-6 expression. RAW cells were cultured onto 6 wells plate. After reaching 80% confluence, cells were pretreated with Compound 28 in 1% FBS medium for 30 min and then incubated with LPS for 24 hr. The levels of IL-6 were determined by IL-6 ELISA kit (BD Bioscience, San Jose, CA, USA). Briefly, 50 μL conditioned medium and 50 μL Assay Diluent were added to each well for 2 hours at room temperature. After washed five times, 100 μL Working Detector was added and incubated for 1 hour. After repetitive washing, 100 μL TMB-Substrate Solution was added for 30 minutes. Finally, 50 μL Stop Solution was added and the optical density was determined using microplate reader set at 450 nm.

[4] = system: multiple myeloma cells (RPMI8226, U266, NCI-H929); test: Apoptosis in multiple myeloma cells, combined with bortezomib (FACScan, propidium iodide); format: cell-based, human; conditions: RPMI8226, U266, and NCI-H929, 24 hours
Experimental: A study was conducted to evaluate the effect of a compound of Formula (I) combined with bortezomib in inducing apoptosis in multiple myeloma cells.
To detect cell cycle progression, cells were incubated with or without the indicated agent for 24 hours, washed twice with ice-cold PBS, collected by centrifugation, and fixed in 70% (v/v) ethanol for 2 hours at −20° C. They were subsequently incubated for 30 minutes at room temperature with 0.2 mL of deoxyribonucleic acid (DNA) extraction buffer (0.2 M Na2HPO4 and 0.1 M citric acid buffer, pH 7.8), re-suspended in 1 mL of propidium iodide staining buffer (0.1% Triton X-100, 100 μg/mL of RNase A, and 80 μg/mL of propidium iodide in PBS), incubated at 37° C. for 30 minutes in darkness, sorted by FACScan, and analyzed using CellQuest software (BD Biosciences).
The study was performed according to the protocol reported in Hsieh et al., Cell Death and Disease, 2014 April; 5:e1166.

**Q.** Which “thermal hyperalgesia (heat pain threshold) vs vehicle” value (“thermal hyperalgesia … vs vehicle” below) ([1]; 50 mg/kg PO qd x14, Days 14, 17, 21, and 24) does the source give for `O=C(CCCCCCNC(=O)c1cnc(N(c2ccccc2)c2ccccc2Cl)nc1)NO` [ACY241, Citarinostat, reference compound] here?
**A.** successfully relieved the thermal hyperalgesia

**Q.** How did the “transfer latency time (elevated plus maze test)” value (scopolamine-treated rats [2]) turn out when `O=C(NO)c1ccc(CNc2cccc3ncccc23)cc1` [Compound 12, N-hydroxy-4-((quinolin-5-ylamino)methyl)benzamide] was run?
**A.** significantly rescued scopolamine-mediated increase of transfer latency time

**Q.** What about the “time spent in the correct quadrant (water maze test)” value (scopolamine-treated rats [3]) of the same compound?
**A.** markedly reverse this effect

**Q.** How did the “thermal hyperalgesia (heat pain threshold)” value ([1]; 100 mg/kg IP on Days 14, 21, and 27, during the experimental period) turn out when `NCC1(CC(=O)O)CCCCC1` [Gabapentin, reference compound] was run?
**A.** attenuated the thermal pain

**Q.** With `O=C(NO)c1ccc(CNc2cccc3cccnc23)cc1` [Compound 28, N-hydroxy-4-((quinolin-8-ylamino)methyl)benzamide] as the compound, how does the “transfer latency time (elevated plus maze test)” value (scopolamine-treated rats [2]) read?
**A.** significantly rescued scopolamine-mediated increase of transfer latency time

**Q.** What about the “LPS-induced IL-6 expression” value (IL-6 expression) of the same compound?
**A.** significantly reduce LPS-induced IL-6 expression

**Q.** What about the apoptosis induction [4] of the same compound?
**A.** synergistically induced apoptosis

**Q.** And the “time spent in the correct quadrant (water maze test)” value (scopolamine-treated rats [3])?
**A.** markedly reverse this effect

**Q.** And the “thermal hyperalgesia … vs vehicle” value ([1]; 50 mg/kg PO bid x14, Days 21 and 24)?
**A.** markedly reduced the thermal pain

**Q.** And the “thermal hyperalgesia … vs vehicle” value ([1]; 50 mg/kg PO qd x14, Days 14 and 17)?
**A.** significant analgesic effects

**Q.** What about the “thermal hyperalgesia … vs vehicle” value ([1]; 50 mg/kg PO qd x14, Days 21 and 24) of the same compound?
**A.** markedly reduced the thermal pain
